Experimental data reported in PMC9916658, “Design and Synthesis of New Quinazolin-4-one Derivatives with Negative mGlu7 Receptor Modulation Activity and Antipsychotic-Like Properties” (International Journal of Molecular Sciences, 2023).

Key:
human mGlu4 receptor = target: T1, human mGlu4 receptor (Homo sapiens, UniProt Q14833); experiment: mGlu4 receptor selectivity, cAMP accumulation screening at 10 µM; format: cell-based
T1 construct: expressed in transfected cells; host or cells: T-REx 293 (tetracycline-inducible)
T1 sequence (Q14833 33-912): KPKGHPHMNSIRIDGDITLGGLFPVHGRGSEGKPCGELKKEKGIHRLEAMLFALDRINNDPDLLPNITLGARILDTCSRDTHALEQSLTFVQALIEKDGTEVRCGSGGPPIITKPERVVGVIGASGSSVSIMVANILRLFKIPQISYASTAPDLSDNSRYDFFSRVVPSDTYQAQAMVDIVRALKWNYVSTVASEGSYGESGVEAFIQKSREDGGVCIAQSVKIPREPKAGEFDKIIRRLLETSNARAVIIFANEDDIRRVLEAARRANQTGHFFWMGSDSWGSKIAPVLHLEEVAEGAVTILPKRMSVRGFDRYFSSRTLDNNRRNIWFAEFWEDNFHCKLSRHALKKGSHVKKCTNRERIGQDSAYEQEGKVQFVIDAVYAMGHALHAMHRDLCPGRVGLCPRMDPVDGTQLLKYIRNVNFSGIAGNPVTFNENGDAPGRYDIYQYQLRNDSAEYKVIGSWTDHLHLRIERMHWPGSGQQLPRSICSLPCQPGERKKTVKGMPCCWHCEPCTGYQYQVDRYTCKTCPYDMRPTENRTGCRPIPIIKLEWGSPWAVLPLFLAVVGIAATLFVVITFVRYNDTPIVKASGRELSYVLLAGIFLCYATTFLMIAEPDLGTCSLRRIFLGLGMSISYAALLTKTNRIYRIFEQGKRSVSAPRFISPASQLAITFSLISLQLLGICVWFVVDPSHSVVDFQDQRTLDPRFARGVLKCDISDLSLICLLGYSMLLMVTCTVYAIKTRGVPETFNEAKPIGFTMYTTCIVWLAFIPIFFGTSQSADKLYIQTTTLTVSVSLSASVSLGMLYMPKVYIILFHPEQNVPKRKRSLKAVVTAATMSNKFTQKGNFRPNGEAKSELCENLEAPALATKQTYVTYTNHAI
Experimental: The cell lines with the tetracycline-inducible expression of human metabotropic receptors 4, 7, and 8 were described in detail by Chruścicka et al. (mGlu4 receptor NM_000841, mGlu7 receptor NM_000844.2, and mGlu8 receptor NM_000845). Cells were grown under standard cell culture conditions (37 °C, 5% CO2) in DMEM supplemented with 10% tetracycline-free FBS. The expression was induced through the addition of tetracycline to the culture medium at 0.75 μg/mL.
The determination of the intracellular cAMP through homogeneous time-resolved fluorescence (HTRF) was described in detail previously. […] The intracellular concentration of cyclic AMP was measured by means of a cAMP Gi HTRF kit from Cisbio, according to the manufacturer’s instructions. After 1 h of incubation at room temperature, the fluorescence at 620 nm and 665 nm was read (Tecan Infinite M1000). The results were calculated as the 665 nm/620 nm ratio multiplied by 10^4. […] Data were analyzed using GraphPad Prism version 5.04 for Windows (GraphPad Software, San Diego, USA).
Firstly, all compounds were screened at 10 μM using three cell lines expressing the mGlu4/7/8 receptor to evaluate selectivity. […] For compounds that passed the screening procedure, the dose–response curve in the presence of LSP4-2022 in 5 μM was evaluated compared to reference NAM ADX71743. […]

CYP3A4 = target: T2, CYP3A4 (Homo sapiens, UniProt P08684); experiment: CYP inhibition assay, recombinant enzyme, fluorescence; format: in vitro ADME; conditions: test concentrations 1.1, 3.3 and 10 μM; read-out: Cytochrome P450 3A4 IC50
T2 construct: purchased BD Biosciences
T2 sequence (P08684 whole entry): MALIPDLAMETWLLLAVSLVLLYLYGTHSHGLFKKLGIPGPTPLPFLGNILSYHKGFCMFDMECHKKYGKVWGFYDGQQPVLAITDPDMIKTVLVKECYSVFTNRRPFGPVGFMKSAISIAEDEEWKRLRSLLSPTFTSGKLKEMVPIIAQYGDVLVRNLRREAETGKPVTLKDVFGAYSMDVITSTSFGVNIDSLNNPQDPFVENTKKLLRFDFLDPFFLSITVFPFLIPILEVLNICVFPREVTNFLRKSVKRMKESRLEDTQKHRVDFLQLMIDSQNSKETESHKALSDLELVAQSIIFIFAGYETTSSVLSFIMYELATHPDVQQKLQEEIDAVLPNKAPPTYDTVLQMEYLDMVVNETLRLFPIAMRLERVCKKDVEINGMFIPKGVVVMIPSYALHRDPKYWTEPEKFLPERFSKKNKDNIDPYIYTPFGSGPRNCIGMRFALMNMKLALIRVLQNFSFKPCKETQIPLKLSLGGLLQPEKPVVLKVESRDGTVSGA
Experimental: CYP inhibition was performed with the recombinant enzymes CYP1A2, CYP2B6, CYP2C9, CYP2C19, CYP2D6, and CYP3A4 obtained from BD Biosciences. Compounds for CYP inhibition testing were prepared as 10 mM stock solutions in DMSO. Isoform-specific substrates were incubated at 37 °C individually with P450 enzymes (Table 5) and a range of test compound concentrations (1.1, 3.3 and 10 μM) in duplicate. Each isoform was tested separately with one reference compound, a known positive control inhibitor. […] At the end of the incubation, product formation was monitored with fluorescence detection.

[1] = target: T3, recombinant human mGlu7 receptor (Homo sapiens, UniProt Q14831); experiment: NAM mGlu7 activity, forskolin-induced cAMP (HTRF) in T-REx 293 cell line; format: cell-based; conditions: T-REx 293 cells expressing human mGlu7; 5 µM LSP4-2022 (EC80), 5 µM forskolin
T3 construct: expressed in transfected cells; host or cells: T-REx 293 (tetracycline-inducible)
T3 sequence (Q14831 35-915): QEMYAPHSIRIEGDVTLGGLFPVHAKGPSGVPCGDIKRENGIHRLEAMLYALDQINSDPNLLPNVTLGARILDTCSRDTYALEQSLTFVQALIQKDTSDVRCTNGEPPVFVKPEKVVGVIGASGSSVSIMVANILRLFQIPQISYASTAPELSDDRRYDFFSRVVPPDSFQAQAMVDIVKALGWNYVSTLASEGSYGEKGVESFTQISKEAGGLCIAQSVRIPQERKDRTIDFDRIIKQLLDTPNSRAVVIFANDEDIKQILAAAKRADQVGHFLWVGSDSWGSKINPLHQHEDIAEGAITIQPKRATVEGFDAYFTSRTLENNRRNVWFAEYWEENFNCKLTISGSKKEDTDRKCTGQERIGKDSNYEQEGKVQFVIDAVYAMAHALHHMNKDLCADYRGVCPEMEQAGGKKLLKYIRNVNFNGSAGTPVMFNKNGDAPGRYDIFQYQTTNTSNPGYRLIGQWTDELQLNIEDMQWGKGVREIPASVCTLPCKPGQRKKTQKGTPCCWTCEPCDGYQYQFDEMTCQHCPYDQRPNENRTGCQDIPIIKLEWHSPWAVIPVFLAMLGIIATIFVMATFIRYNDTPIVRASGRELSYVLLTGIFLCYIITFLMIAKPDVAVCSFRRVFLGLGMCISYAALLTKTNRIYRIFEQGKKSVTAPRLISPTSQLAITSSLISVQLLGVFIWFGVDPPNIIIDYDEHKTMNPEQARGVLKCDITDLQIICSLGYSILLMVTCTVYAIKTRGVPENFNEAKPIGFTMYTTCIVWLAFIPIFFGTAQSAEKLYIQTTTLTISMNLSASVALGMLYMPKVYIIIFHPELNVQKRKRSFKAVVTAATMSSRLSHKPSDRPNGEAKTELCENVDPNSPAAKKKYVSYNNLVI

[2] = Pharmacokinetics of ALX-171 after i.v. and p.o. administration; format: in vivo; conditions: mouse, female BALB/c mice
naïve mice = experiment: Spontaneous locomotor activity of naïve mice; format: in vivo; conditions: compound alone
[3] = system: prepulse inhibition in rats; experiment: Prepulse inhibition test; format: in vivo
[4] = system: MK-801-induced hyperactivity in mice; experiment: MK-801-induced hyperactivity; format: in vivo; conditions: mice, 2.5, 5, or 10 mg/kg
Experimental: The locomotor activity was recorded individually for each animal in locomotor activity cages with modifications. […] After 30 min, all of the mice were injected i.p. with MK-801 at 0.35 mg/kg and once again placed in the same cage. From then on, the ambulation scores were counted for 60 min. All of the groups were compared with the MK-801 control group. The experiment also included a control group treated with NaCl only.

SMILES: Cn1c(-c2ccccc2Cl)nc2ccc(-c3ccccc3)cc2c1=O [ALX-065, 2-(2-chlorophenyl)-3-methyl-6-phenylquinazolin-4(3H)-one]
- mGlu4 NAM activity (human mGlu4 receptor; at 10 µM): 19.6%
- IC50 (CYP3A4): > 10 µM
- IC50 [1]: 4.65 ± 3.46 µM

SMILES: COc1cccc(-c2ccc3nc(-c4ccccc4Cl)n(C)c(=O)c3c2)c1OC [ALX-171, 2-(2-chlorophenyl)-6-(2,3-dimethoxyphenyl)-3-methylquinazolin-4(3H)-one]
- selectivity over mGlu4 (human mGlu4 receptor; group III mGlu receptors): selective
- IC50 (CYP3A4): 3.3 to 10 µM
- AUC(0-t) ([2]; iv, brain, i.v. 3 mg/kg): 3.27 µM·h
- Cmax ([2]; iv, brain, i.v. 3 mg/kg): 1850 nM
- Tmax ([2]; iv, brain, i.v. 3 mg/kg): 0.25 h
- half-life ([2]; iv, brain, i.v. 3 mg/kg): 3.41 h
- AUC(0-t) ([2]; iv, plasma, i.v. 3 mg/kg): 2.91 µM·h
- Cmax ([2]; iv, plasma, i.v. 3 mg/kg): 1590 nM
- Tmax ([2]; iv, plasma, i.v. 3 mg/kg): 0.25 h
- Vd ([2]; iv, plasma, i.v. 3 mg/kg): 7.63 L/kg
- half-life ([2]; iv, plasma, i.v. 3 mg/kg): 2.26 h
- bioavailability ([2]; plasma, oral, p.o. 5 mg/kg vs i.v. 3 mg/kg, read-out: F (peroral bioavailability)): 58%
- AUC(0-t) ([2]; po, brain, p.o. 5 mg/kg): 2.97 µM·h
- Cmax ([2]; po, brain, p.o. 5 mg/kg): 1360 nM
- Tmax ([2]; po, brain, p.o. 5 mg/kg): 0.5 h
- half-life ([2]; po, brain, p.o. 5 mg/kg): 2.95 h
- AUC(0-t) ([2]; po, plasma, p.o. 5 mg/kg): 2.63 µM·h
- Cmax ([2]; po, plasma, p.o. 5 mg/kg): 1090 nM
- Tmax ([2]; po, plasma, p.o. 5 mg/kg): 0.5 h
- half-life ([2]; po, plasma, p.o. 5 mg/kg): 3.08 h
- spontaneous locomotor activity (naïve mice): no effect
- MK-801-induced decrease of prepulse inhibition ([3]; any of the investigated doses): no effect
- disturbance of the PPI response, compound alone ([3]; highest investigated dose 10 mg/kg): ~ 50%
- IC50 [1]: 6.14 ± 3.42 µM
- MK-801-induced increase in locomotor activity [4]: not able to reverse
